Assay results taken from PMC9116245, “New 1,2,3-triazole linked ciprofloxacin-chalcones induce DNA damage by inhibiting human topoisomerase I& II and tubulin polymerization” (Journal of Enzyme Inhibition and Medicinal Chemistry, 2022).

Tests used:
Assay type in all cases: cell-based
[1] = tested on: HCT116; assay: MTT assay; settings: Homo sapiens, HCT-116, 24 h incubation
Procedure: (§1) The proliferation of colorectal cancer cells (HCT116, HT29 and Caco-2) was assessed using MTT assay as previously reported. Cells were treated with increasing concentrations of 1, 5, 10, 20, 40, 80 or 100 µM of CP hybrids 4a-j, doxorubicin, or DMSO. See Supplementary Appendix A.

[2] = tested on: Caco-2; assay: MTT assay; settings: Homo sapiens; Caco-2, MTT assay, 24 h incubation
Procedure: as §1

[3] = tested on: HT-29; assay: MTT assay; settings: Homo sapiens; HT-29, MTT assay, 24 h incubation
Procedure: as §1

[4] = tested on: A498; assay: NCI one-dose screen; settings: Homo sapiens; A498, 10 µM; read-out: Growth Percent
Procedure: (§2) For screening of anticancer properties, all the developed compounds were chosen by the (NCI) for in-vitro antitumor evaluation. The assay was carried out using 59 human cancer cell lines obtained from nine tumour subpanels (breast, ovarian, melanoma, leukaemia, renal, CNS, lung, prostate, and colon cancer cell lines). Compounds were assessed at a 10 µM concentration. […] Also, hybrids 4a, 4b, 4e, 4i and 4j produced significant anti-proliferative effect in several cancer cells, particularly in leukaemia (RPMI-8226) and colon (HCT116) cells with growth percent of 47.87, −14.59, −24.56, −24.42, −15.84, −9.74, −53.36, −10.26, −31.29, and −39.51%, respectively.
(§3) The method description for NCI anticancer screening is provided in detail in the standard NCI-60 testing protocol.

[5] = tested on: UACC-257; assay: NCI one-dose screen; settings: Homo sapiens; UACC-257, 10 µM; read-out: Growth Percent
Procedure: as §2, §3

[6] = tested on: DU-145; assay: NCI one-dose screen; settings: Homo sapiens; DU-145, 10 µM; read-out: Growth Percent
Procedure: as §2, §3

[7] = tested on: U251; assay: NCI one-dose screen; settings: Homo sapiens, U-251; U251, 10 µM; read-out: Growth Percent
Procedure: as §2, §3

[8] = tested on: SF-539; assay: NCI one-dose screen; settings: Homo sapiens; SF-539, 10 µM; read-out: Growth Percent
Procedure: as §2, §3

[9] = tested on: LOX IMVI; assay: NCI one-dose screen; settings: Homo sapiens, read-out: Growth Percent
Procedure: as §2, §3

[10] = tested on: A549/ATCC; assay: NCI one-dose screen; settings: Homo sapiens, read-out: Growth Percent
Procedure: as §2, §3

[11] = tested on: EKVX; assay: NCI one-dose screen; settings: Homo sapiens, read-out: Growth Percent
Procedure: as §2, §3

[12] = tested on: MDA-MB-468; assay: NCI one-dose screen; settings: Homo sapiens; MDA-MB-468, 10 µM; read-out: Growth Percent
Procedure: as §2, §3

[13] = tested on: NCI-H460; assay: NCI one-dose screen; settings: Homo sapiens; NCI-H460, 10 µM; read-out: Growth Percent
Procedure: as §2, §3

[14] = tested on: SF-268; assay: NCI one-dose screen; settings: Homo sapiens; SF-268, 10 µM; read-out: Growth Percent
Procedure: as §2, §3

[15] = tested on: M14; assay: NCI one-dose screen; settings: Homo sapiens; M14, 10 µM; read-out: Growth Percent
Procedure: as §2, §3

[16] = tested on: HT29; assay: NCI one-dose screen; settings: Homo sapiens, HT-29; HT29, 10 µM; read-out: Growth Percent
Procedure: as §2, §3

[17] = tested on: SK-MEL-28; assay: NCI one-dose screen; settings: Homo sapiens; SK-MEL-28, 10 µM; read-out: Growth Percent
Procedure: as §2, §3

[18] = tested on: MCF7; assay: NCI one-dose screen; settings: Homo sapiens; MCF7, 10 µM; read-out: Growth Percent
Procedure: as §2, §3

[19] = tested on: SR; assay: NCI one-dose screen; settings: Homo sapiens, read-out: Growth Percent
Procedure: as §2, §3

[20] = tested on: MOLT-4; assay: NCI one-dose screen; settings: Homo sapiens; MOLT-4, 10 µM; read-out: Growth Percent
Procedure: as §2, §3

[21] = tested on: SW-620; assay: NCI one-dose screen; settings: Homo sapiens; SW-620, 10 µM; read-out: Growth Percent
Procedure: as §2, §3

[22] = tested on: CCRF-CEM; assay: NCI one-dose screen; settings: Homo sapiens, read-out: Growth Percent
Procedure: as §2, §3

[23] = tested on: NCI-H23; assay: NCI one-dose screen; settings: Homo sapiens; NCI-H23, 10 µM; read-out: Growth Percent
Procedure: as §2, §3

[24] = tested on: KM12; assay: NCI one-dose screen; settings: Homo sapiens; KM12, 10 µM; read-out: Growth Percent
Procedure: as §2, §3

[25] = tested on: SF-295; assay: NCI one-dose screen; settings: Homo sapiens; SF-295, 10 µM; read-out: Growth Percent
Procedure: as §2, §3

[26] = tested on: OVCAR-8; assay: NCI one-dose screen; settings: Homo sapiens; OVCAR-8, 10 µM; read-out: Growth Percent
Procedure: as §2, §3

[27] = tested on: OVCAR-3; assay: NCI one-dose screen; settings: Homo sapiens; OVCAR-3, 10 µM; read-out: Growth Percent
Procedure: as §2, §3

[28] = tested on: SN12C; assay: NCI one-dose screen; settings: Homo sapiens, read-out: Growth Percent
Procedure: as §2, §3

[29] = tested on: MDA-MB-435; assay: NCI one-dose screen; settings: Homo sapiens; MDA-MB-435, 10 µM; read-out: Growth Percent
Procedure: as §2, §3

[30] = tested on: SNB-75; assay: NCI one-dose screen; settings: Homo sapiens; SNB-75, 10 µM; read-out: Growth Percent
Procedure: as §2, §3

[31] = tested on: NCI-H226; assay: NCI one-dose screen; settings: Homo sapiens; NCI-H226, 10 µM; read-out: Growth Percent
Procedure: as §2, §3

[32] = tested on: HCC-2998; assay: NCI one-dose screen; settings: Homo sapiens; HCC-2998, 10 µM; read-out: Growth Percent
Procedure: as §2, §3

[33] = tested on: NCI-H522; assay: NCI one-dose screen; settings: Homo sapiens; NCI-H522, 10 µM; read-out: Growth Percent
Procedure: as §2, §3

[34] = tested on: HCT-15; assay: NCI one-dose screen; settings: Homo sapiens; HCT-15, 10 µM; read-out: Growth Percent
Procedure: as §2, §3

[35] = tested on: ACHN; assay: NCI one-dose screen; settings: Homo sapiens, read-out: Growth Percent
Procedure: as §2, §3

[36] = tested on: 59 human cancer cell lines; assay: NCI one-dose screen, whole panel; settings: for activity at 10 µM: Homo sapiens, mean over the panel, read-out: Mean Growth Percent
Procedure: as §2, §3

| Compound | IC50 [1] [µM] | IC50 [2] [µM] | IC50 [3] [µM] | activity at 10 µM [4] [%] | activity at 10 µM [5] [%] | activity at 10 µM [6] [%] | activity at 10 µM [7] [%] | activity at 10 µM [8] [%] | activity at 10 µM [9] [%] | activity at 10 µM [10] [%] | activity at 10 µM [11] [%] | activity at 10 µM [12] [%] | activity at 10 µM [13] [%] | activity at 10 µM [14] [%] | activity at 10 µM [15] [%] | activity at 10 µM [16] [%] | activity at 10 µM [17] [%] | activity at 10 µM [18] [%] | activity at 10 µM [19] [%] | activity at 10 µM [20] [%] | further results |
| --- | --- | --- | --- | --- | --- | --- | --- | --- | --- | --- | --- | --- | --- | --- | --- | --- | --- | --- | --- | --- | --- |
| O=C(/C=C/c1ccccc1)c1ccc(-n2cc(CN3CCN(c4cc5c(cc4F)c(=O)c(C(=O)O)cn5C4CC4)CC3)nn2)cc1 [Compound 4a, (E) 7-(4-((1–(4-Cinnamoylphenyl)-1H-1,2,3-triazol-4-yl)methyl)piperazin-1-yl)-1-cyclopropyl-6-fluoro-4-oxo-1,4-dihydroquinoline-3-carboxylic acid] | 3.57 ± 0.59 | 8.39 ± 2.46 | 22.4 ± 3.25 | 76.7 | 96.7 | 104 | 98.4 | 92.6 | 55.4 | 89.8 | 88.5 | 72.5 | 91.2 | 85.3 | 90.1 | 90.8 | 99.3 | 72.9 | 99.6 | 102 | activity at 10 µM [21]: 90%; activity at 10 µM [22]: 111%; activity at 10 µM [23]: 83.5%; activity at 10 µM [24]: 84.9%; activity at 10 µM [25]: 95.9%; activity at 10 µM [26]: 95.1%; activity at 10 µM [27]: 90.4%; activity at 10 µM [28]: 103%; activity at 10 µM [29]: 96.3%; activity at 10 µM [30]: 92.7%; activity at 10 µM [31]: 69.6%; activity at 10 µM [32]: 86%; activity at 10 µM [33]: 89.2%; activity at 10 µM [34]: 93.8%; activity at 10 µM [35]: 96.7%; activity at 10 µM [36]: 87.8% |
| CN(C)c1ccc(/C=C/C(=O)c2ccc(-n3cc(CN4CCN(c5cc6c(cc5F)c(=O)c(C(=O)O)cn6C5CC5)CC4)nn3)cc2)cc1 [Compound 4h, (E)-1-cyclopropyl-7–(4-((1–(4-(3-(4-(dimethylamino)phenyl)acryloyl)phenyl)-1H-1,2,3-triazol-4-yl)methyl)piperazin-1-yl)-6-fluoro-4-oxo-1,4-dihydroquinoline-3-carboxylic acid] | 5.09 ± 2.74 | 6.39 ± 1.41 | 21.7 ± 2.74 | 64.5 | 101 | 96.3 | 73 | 73.6 | 56.9 | 93.5 | 96 | 77.1 | 89.7 | 71.5 | 87.4 | 98.9 | 100 | 59.2 | 63.2 | 86 | activity at 10 µM [21]: 98.5%; activity at 10 µM [22]: 84.3%; activity at 10 µM [23]: 81.5%; activity at 10 µM [24]: 84.1%; activity at 10 µM [25]: 86.9%; activity at 10 µM [26]: 62.5%; activity at 10 µM [27]: 96%; activity at 10 µM [28]: 67.7%; activity at 10 µM [29]: 77.4%; activity at 10 µM [30]: 70.8%; activity at 10 µM [31]: 84.6%; activity at 10 µM [32]: 92.4%; activity at 10 µM [33]: 88.6%; activity at 10 µM [34]: 97.6%; activity at 10 µM [35]: 89.8%; activity at 10 µM [36]: 82% |
| COc1cc(/C=C/C(=O)c2ccc(-n3cc(CN4CCN(c5cc6c(cc5F)c(=O)c(C(=O)O)cn6C5CC5)CC4)nn3)cc2)cc(OC)c1OC [Compound 4j, (E)-1-cyclopropyl-6-fluoro-4-oxo-7–(4-((1–(4-(3-(3,4,5-trimethoxyphenyl)acryloyl)phenyl)-1H-1,2,3-triazol-4-yl)methyl)piperazin-1-yl)-1,4-dihydroquinoline-3-carboxylic acid] | 2.53 ± 0.31 | 7.14 ± 2.48 | 13.2 ± 2.4 | 54.4 | 62 | 45.8 | 10.6 | 7.09 | -1.51 | 15.7 | 80 | -7.19 | 53.1 | 59.5 | 28.2 | 4.76 | 34.6 | 16.1 | -12.4 | 10.5 | activity at 10 µM [21]: 9.41%; activity at 10 µM [22]: 3.05%; activity at 10 µM [23]: 50.6%; activity at 10 µM [24]: 8.81%; activity at 10 µM [25]: 67.5%; activity at 10 µM [26]: 39.7%; activity at 10 µM [27]: -16.1%; activity at 10 µM [28]: 14.9%; activity at 10 µM [29]: 5.4%; activity at 10 µM [30]: 65.5%; activity at 10 µM [31]: 32.4%; activity at 10 µM [32]: -39.7%; activity at 10 µM [33]: 49.5%; activity at 10 µM [34]: 33.8%; activity at 10 µM [36]: 33.7%; Growth Percent ([36]; majority of cancer cell lines, 10 µM): 67.46 to −39.69% |
